Results: patent US20230107770A1, “METHOD OF ENHANCING IMMUNOTHERAPY USING ER STRESS PATHWAY INHIBITORS” (H. LEE MOFFITT CANCER CENTER AND RESEARCH INSTITUTE, INC., priority 2020, published 2023)

Key:
[1] = Blood glucose and pancreatic islets in B16-bearing mice; assay type: in vivo
From the text: Hematoxylin and Eosin (H&E) stained slides were scanned in an Aperio AT2 whole slide scanner (Leica Biosystems Inc.) equipped with a 20×0.7NA objective lens Images were created at 0.5 micron per pixel resolution and imported into Definiens Tissue Studio software v4.7 (Definiens AG) for analysis. Islets were found using a semi-automated segmentation process. First an automatic segmentation was applied to the image to create contour lines around objects within the image. Objects that contained islets were classified as such and remaining objects were classified as non-islet tissue. Next, adjacent objects of the same classification were merged together to clean up the segmentation. Segmented images were analyzed to provide the total area of islets Immunofluorescence for mouse insulin in pancreas tissue sections was performed as we described (Sultan et al., 2017). Labeled samples were scanned with a Zeiss Imager Z2 Upright FL microscope with a 10× objective lens using the tile scan function. Images were created at a
0.65 micron per pixel resolution and imported into the Definiens Tissue Studio software v4.7 (Definiens AG) for islet detection and analysis. Islets were detected using a semi-automated segmentation process. First, an automatic segmentation was applied to the image to detect the tissue. Then, the software was trained to detect islet vs. non-islet tissue within the image. In order to remove false detected islets caused by background staining, detected islets larger than 150,000 square microns and less than 600 square microns were reclassified to non-islet tissue. Segmented images were then analyzed to provide the fluorescent intensity of islets and total tissue area.

[2] = system: human FSH-CER T cells; assay: Expansion of IL-2-supplemented human FSH-CER T cells with ER stress inhibitors; assay type: cell-based; conditions: treatment for 5 days
Experimental: The role of the PERK-Chop in the expansion of tumor TRM cells using conditional T cell Chop-null mice was evaluated. In agreement with the inhibitory effect of Chop in TRM development, higher frequency of TRM cells was detected in tumors from T cell-Chop^KO mice compared to controls (FIG. 23A). Next, we tested the effect of the inhibition of PERK (AMG-44) and IRE 1α (MKC8866) during the expansion of IL-2-supplemented human FSH-CER T cells. […] Also, we evaluated the therapeutic effect of the combination of ER stress-targeting therapy and FSH-CER. Thus, mice bearing FSHR+-ID8-Defb29/Vegfa ovarian tumors for 7 days received daily treatments with MKC8866 (i.p., 300 mg/kg) or AMG-44 (i.p. 12 mg/kg) for one-week, and i.p. transfer of FSH-CER T cells at days 7 and 14 post-tumor challenge. […] We postulate that treatments for longer time periods with ER stress inhibitors will further potentiate the effect of FSH-CER T cells

[3] = system: CD8+ TILs; assay: Flow cytometry of tumor-infiltrating CD8+ T cells from treated mice; assay type: in vivo
Experimental: All analysis was performed using FlowJo version 11 software.

Structure (SMILES): Cc1ccc2cc(-c3c(C)ccc(C(=O)c4c(-c5ccccc5)n(C)n(-c5ccccc5)c4=O)c3N)ccc2n1 [AMG-44]
- blood glucose levels ([1]; AMG-44 12 and 24 mg/kg): without alterations
- insulin expression in the pancreatic islets ([1]; AMG-44 12 and 24 mg/kg): without alterations
- size of the pancreatic islets ([1]; AMG-44 12 and 24 mg/kg): without alterations
- glucose levels in the serum ([1]; B16-bearing mice treated for a week, GSK2606414 25 mg/kg or AMG-44 12 mg/kg, day 17): failed to show alterations in glucose levels
- frequency of FSH-CER TRM cells [2]: Higher frequency of FSH-CER TRM cells
- tumor-infiltrating CD8+ T cells expressing IFNγ ([3]; B16-bearing mice, AMG-44 12 mg/kg): induced expansion
- frequency of IFNγ-producing CD8+ T cells in tumors ([3]; B16, GSK2606414 25 mg/kg or AMG-44 12 mg/kg, 17 days post-tumor injection): amplified the frequency of IFNγ-producing CD8^+ T cells in tumors
